Data reported in patent US8163909B2, “Substituted hydroxyethyl amine compounds as beta-secretase modulators and methods of use” (Amgen Inc., priority 2007, dated 2012).
Like-named read-outs stand apart in the source and are kept apart here.

Key:
[1] = target: Beta Secretase enzyme (BACE) (Homo sapiens, UniProt P56817); experiment: In vitro enzymatic BACE FRET (fluorescence resonance energy transfer) assay; assay type: biochemical; conditions: BACE enzyme FRET assay; read-out: BACE1 FRET assay (IC50);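 also: fluorescence read after 1 h with 50 nM quenched peptide substrate spanning the BACE cleavage site, in pH 4.2 acetate buffer containing 10% DMSO and nonionic detergent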
Beta Secretase enzyme (BACE), sequence (P56817 46-501): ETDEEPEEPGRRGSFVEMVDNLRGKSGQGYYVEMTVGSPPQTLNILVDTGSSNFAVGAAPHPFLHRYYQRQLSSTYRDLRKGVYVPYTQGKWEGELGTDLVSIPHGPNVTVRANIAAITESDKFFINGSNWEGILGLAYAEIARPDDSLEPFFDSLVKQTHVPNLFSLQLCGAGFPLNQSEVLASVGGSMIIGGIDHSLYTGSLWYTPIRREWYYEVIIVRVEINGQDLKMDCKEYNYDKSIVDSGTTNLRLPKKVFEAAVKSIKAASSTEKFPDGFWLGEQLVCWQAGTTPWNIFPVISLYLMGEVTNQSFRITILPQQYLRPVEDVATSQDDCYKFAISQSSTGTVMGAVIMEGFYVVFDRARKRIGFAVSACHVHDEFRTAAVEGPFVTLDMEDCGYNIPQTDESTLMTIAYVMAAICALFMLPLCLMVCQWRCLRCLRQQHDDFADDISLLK

[2] = test system: Aβ40 in conditioned medium of cells stably expressing Amyloid Precursor Protein (APP); experiment: In vitro BACE cell-based assay (Aβ40 in conditioned medium, sandwich ELISA); conditions: cell-based assay, read-out: HEK cell assay (IC50);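 also: compounds added as a dilution series, secreted peptide quantified by europium time-resolved fluorescence readout, potency fitted from percent of control versus compound concentration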
[3] = Homo sapiens, HEK293, HEK cells

| SMILES | IC50 [1] | IC50 [2, 3] | IC50 ([2]; HEK cells) |
| --- | --- | --- | --- |
| COc1cc(C[C@H](NC(C)=O)[C@H](O)CN[C@H]2CC3(CCC3)Oc3ncc(CC(C)(C)C(F)F)cc32)ccc1Cl [compound 216] | 16 nM | 24.9 nM |  |
| CC(=O)N[C@@H](Cc1cccc(F)c1)[C@H](O)CN[C@H]1CC2(CCC2)Oc2ncc(CC(C)(C)C(F)F)cc21 [compound 217] | 2.92 nM | 2.98 nM |  |
| COCC(=O)N[C@@H](Cc1cccc(F)c1)[C@H](O)CN[C@H]1CC2(CCC2)Oc2ncc(CC(C)(C)C(F)F)cc21 [compound 218] | 4.38 nM | 5.25 nM |  |
| CO[C@H](C)C(=O)N[C@@H](Cc1cccc(F)c1)[C@H](O)CN[C@H]1CC2(CCC2)Oc2ncc(CC(C)(C)C(F)F)cc21 [compound 219] | 5.08 nM | 5.99 nM |  |
| CC(=O)N[C@@H](Cc1cccc(F)c1)[C@H](O)CN[C@H]1CC2(CCC2)Oc2c(F)cc(CC(C)(C)C)cc21 [compound 220] | 4.05 nM | 11.6 nM |  |
| COCC(=O)N[C@@H](Cc1cccc(F)c1)[C@H](O)CN[C@H]1CC2(CCC2)Oc2c(F)cc(CC(C)(C)C)cc21 [compound 221] | 13.7 nM | 44.4 nM |  |
| CO[C@H](C)C(=O)N[C@@H](Cc1cccc(F)c1)[C@H](O)CN[C@H]1CC2(CCC2)Oc2c(F)cc(CC(C)(C)C)cc21 [compound 222] | 4.45 nM | 12.7 nM |  |
| CC(=O)N[C@@H](Cc1ccnc(OCC(F)F)c1)[C@H](O)CN[C@H]1CC2(CCC2)Oc2c(F)cc(CC(C)(C)C)cc21 [compound 223] | 9.69 nM | 29.8 nM |  |
| CC(=O)N[C@@H](Cc1cc(F)cc(F)c1)[C@H](O)CN[C@H]1CC2(CCC2)Oc2c(F)cc(CC(C)(C)C)cc21 [compound 224] | 4.67 nM | 19.3 nM |  |
| CC(=O)N[C@@H](Cc1ccc(Cl)c(F)c1)[C@H](O)CN[C@H]1CC2(CCC2)Oc2ncc(CC(C)(C)C(F)F)cc21 [compound 225] | 9.22 nM | 23.9 nM |  |
| CC(=O)N[C@@H](Cc1cc(F)cc(F)c1)[C@H](O)CN[C@H]1CC2(CCC2)Oc2ncc(CC(C)(C)C(F)F)cc21 [compound 226] | 4.15 nM | 5.27 nM |  |
| CO[C@H](C)C(=O)N[C@@H](Cc1ccc(Cl)c(F)c1)[C@H](O)CN[C@H]1CC2(CCC2)Oc2ncc(CC(C)(C)C(F)F)cc21 [compound 227] | 15.1 nM | 31.4 nM |  |
| CO[C@H](C)C(=O)N[C@@H](Cc1cc(F)cc(F)c1)[C@H](O)CN[C@H]1CC2(CCC2)Oc2ncc(CC(C)(C)C(F)F)cc21 [compound 228] | 6.15 nM | 7.56 nM |  |
| COCC(=O)N[C@@H](Cc1ccc(F)cc1)[C@H](O)CN[C@H]1CC2(CCC2)Oc2c(F)cc(CC(C)(C)C)cc21 [compound 229] | 8.19 nM | 85.5 nM |  |
| CC(C)(C)Cc1cnc2c(c1)C(NCC(O)C(Cc1ccc(F)cc1)NC(=O)CF)CC1(CC(O)C1)O2 [compound 230, N-((1S,2R)-3-(((1s,3S,4′S)-6′-(2,2-dimethylpropyl)-3-hydroxy-3′,4′-dihydrospiro[cyclobutane-1,2′-pyrano[2,3-b]pyridin]-4′-yl)amino)-1-((4-fluorophenyl)methyl)-2-hydroxypropyl)-2-fluoroacetamide] | 4.24 nM | 10 nM |  |
| CC(=O)NC(Cc1cccc(F)c1)C(O)CNC1CC2(CC(O)C2)Oc2ncc(CC(C)(C)C)cc21 [compound 231, N-((1S,2R)-3-(((1s,3S,4′S)-6′-(2,2-dimethylpropyl)-3-hydroxy-3′,4′-dihydrospiro[cyclobutane-1,2′-pyrano[2,3-b]pyridin]-4′-yl)amino)-1-((3-fluorophenyl)methyl)-2-hydroxypropyl)acetamide] | 4.04 nM | 3.04 nM |  |
| COCC(=O)N[C@@H](Cc1cccc(F)c1)[C@H](O)CN[C@H]1C[C@]2(C[C@H](O)C2)Oc2ncc(CC(C)(C)C)cc21 [compound 232, N-((1S,2R)-3-(((1s,3S,4′S)-6′-(2,2-dimethylpropyl)-3-hydroxy-3′,4′-dihydrospiro[cyclobutane-1,2′-pyrano[2,3-b]pyridin]-4′-yl)amino)-1-((3-fluorophenyl)methyl)-2-hydroxypropyl)-2-(methyloxy)acetamide] | 2.34 nM |  | 3.27 nM |
| COCC(=O)NC(Cc1ccc(F)c(F)c1)C(O)CNC1CC2(CC(O)C2)Oc2ncc(CC(C)(C)C)cc21 [compound 233, N-((1S,2R)-1-((3,4-difluorophenyl)methyl)-3-(((1s,3S,4′S)-6′-(2,2-dimethylpropyl)-3-hydroxy-3′,4′-dihydrospiro[cyclobutane-1,2′-pyrano[2,3-b]pyridin]-4′-yl)amino)-2-hydroxypropyl)-2-(methyloxy)acetamide] | 7.24 nM | 7.33 nM |  |
| COCC(=O)NC(Cc1ccc(Cl)cc1)C(O)CNC1CC2(CC(O)C2)Oc2ncc(CC(C)(C)C)cc21 [compound 234, N-((1S,2R)-1-((4-chlorophenyl)methyl)-3-(((1s,3S,4′S)-6′-(2,2-dimethylpropyl)-3-hydroxy-3′,4′-dihydrospiro[cyclobutane-1,2′-pyrano[2,3-b]pyridin]-4′-yl)amino)-2-hydroxypropyl)-2-(methyloxy)acetamide] | 4.04 nM | 13.5 nM |  |
| COCC(=O)NC(Cc1cccc(F)c1)C(O)CNC1CC2(CC(O)C2)Oc2cnccc21 [compound 235, N-((1S,2R)-1-((3-fluorophenyl)methyl)-2-hydroxy-3-(((1s,3S,4′S)-3-hydroxy-3′,4′-dihydrospiro[cyclobutane-1,2′-pyrano[2,3-c]pyridin]-4′-yl)amino)propyl)-2-(methyloxy)acetamide] | 581 nM | 452 nM |  |
| COCC(=O)NC(Cc1cccc(F)c1)C(O)CNC1CC2(CC(O)C2)Oc2cnccc21 [compound 236, N-((1S,2R)-1-((3-fluorophenyl)methyl)-2-hydroxy-3-(((1r,3R,4′S)-3-hydroxy-3′,4′-dihydrospiro[cyclobutane-1,2′-pyrano[2,3-c]pyridin]-4′-yl)amino)propyl)-2-(methyloxy)acetamide] | 5180 nM |  | 270 nM |
| CC(=O)NC(Cc1cccc(F)c1)C(O)CNC1CC2(CC(O)C2)Oc2cnccc21 [compound 237, N-((1S,2R)-1-((3-fluorophenyl)methyl)-2-hydroxy-3-(((1r,3R,4′S)-3-hydroxy-3′,4′-dihydrospiro[cyclobutane-1,2′-pyrano[2,3-c]pyridin]-4′-yl)amino)propyl)acetamide] | 6420 nM | 2450 nM |  |
| COCC(=O)NC(Cc1ccc2c(c1)OCO2)C(O)CNC1CC2(CC(C)C2)Oc2ncc(CC(C)(C)C)cc21 [compound 238, N-((1S,2R)-1-(1,3-benzodioxol-5-ylmethyl)-3-(((1s,3R,4′S)-6′-(2,2-dimethylpropyl)-3-methyl-3′,4′-dihydrospiro[cyclobutane-1,2′-pyrano[2,3-b]pyridin]-4′-yl)amino)-2-hydroxypropyl)-2-(methyloxy)acetamide] | 18.4 nM | 32.7 nM |  |
| COC(C)C(=O)NC(Cc1ccc2c(c1)OCO2)C(O)CNC1CC2(CC(C)C2)Oc2ncc(CC(C)(C)C)cc21 [compound 239, (2R)—N-((1S,2R)-1-(1,3-benzodioxol-5-ylmethyl)-3-(((1s,3R,4′S)-6′-(2,2-dimethylpropyl)-3-methyl-3′,4′-dihydrospiro[cyclobutane-1,2′-pyrano[2,3-b]pyridin]-4′-yl)amino)-2-hydroxypropyl)-2-(methyloxy)propanamide] | 17.8 nM | 34.6 nM |  |
